Here are results for 23 molecules from patent EP0357061B1, “Angiogenesis inhibitory agent” (priority 1988, dated 1990).

Converted amounts (≈) assume the structure as drawn. Marks after values point to notes of the source that are not given here.

The first experiment has as its system bFGF-induced angiogenesis. The experiment is described as follows: rat cornea micropocket method (angiogenesis inhibitory activity). It is filed as in vivo, Sprague-Dawley rats. The following applies: rats with angiogenesis inhibitory activity / rats tested; sample pellet 20 »g; judged after 7 days. Here is the method:
The product compound (I) obtained in the examples given below were evaluated for angiogenesis inhibitory activity by the rat cornea micropocket method.
Essentially the method of Gimbrone et al. [J. National Cancer Institute, 52, 413-419 (1974)] was followed. Thus, adult male Sprague-Dawley rats (11 to 16 weeks of age) were anesthetized with nembutal and locally anesthetized by instillation of xylocaine eyedrops onto the eyeball. The cornea was incised to a length of about 2 mm at about 2mm inside from the corneal circumference by means of an injection needle, and a sustained release pellet containing basic fibroblast growth factor (bFGF; bovine brain-derived, purified product; R & D) and a sustained release pellet containing the test sample were inserted side by side into the incision so that the bFGF pellet was located on the central side in the cornea. In the control group, the bFGF pellet and a sample-free pellet were inserted into the cornea. After 7 days and after 10 days, the cornea was observed under a stereoscopic microscope.
The sustained release pellets were prepared in the following manner. An ethylene-vinyl acetate copolymer (Takeda Chemical Industries) was dissolved in dichloromethane to a concentration of 8%. A 3-»l portion of the solution was air-dried on a glass dish, an aqueous solution of bFGF (250 ng) was then placed thereon and air-dried and, finally 3 »l of the above ethylene-vinyl acetate copolymer solution was placed further thereon and air-dried to give a laminate consisting of two copolymer layers and a bFGF layer sandwiched therebetween. This sandwich sheet was made round into a bFGF pellet. The test sample pellets were prepared by dissolving each sample in ethanol in a concentration of 20 »g/2 »l, mixing the solution (2 »l) with 6 »l of an ethylene-vinyl acetate copolymer solution, air-drying the mixed solution on a glass dish and making the thus-obtained sheet round.
On to `CO[C@@H]1[C@H](OC(=O)COCC(=O)O)CC[C@]2(CO2)[C@H]1[C@@]1(C)O[C@@H]1CC=C(C)C` [Example 5, O-Carboxymethoxyacetylfumagillol], for which the Inhibition rate is reported as 8/8*. Same read-out and setting: in the case of `CO[C@@H]1[C@H](OCc2ccccc2)CC[C@]2(CO2)[C@H]1[C@@]1(C)O[C@@H]1CC=C(C)C` [Example 17, O-Benzylfumagillol] it was 7/8*.

Still in this experiment, the particulars now being: rats with angiogenesis inhibitory activity / rats tested; sample pellet 20 »g; judged after 10 days.
As to `CO[C@@H]1[C@H](OC(=O)NC(=O)CSc2cccc3cccnc23)CC[C@]2(CO2)[C@H]1[C@@]1(C)O[C@@H]1CC=C(C)C` [Example 62, O-[(8-Quinolyl)thioacetylcarbamoyl]fumagillol], the Inhibition rate was 7/7. With `CO[C@@H]1[C@H](OC(=O)Oc2ccccc2)CC[C@]2(CO2)[C@H]1[C@@]1(C)O[C@@H]1CC=C(C)C` [Example 22, O-Phenoxycarbonylfumagillol], the Inhibition rate is reported as 5/8. The same measure, in the same setting: in the case of `C=C(C)C(=O)NC(=O)O[C@@H]1CC[C@]2(CO2)[C@@H]([C@@]2(C)O[C@@H]2CC=C(C)C)[C@@H]1OC` [Example 33, O-Methacryloylcarbamoylfumagillol] it was 4/6; in that of `CO[C@@H]1[C@H](OC(c2ccccc2)c2ccccc2)CC[C@]2(CO2)[C@H]1[C@@]1(C)O[C@@H]1CC=C(C)C` [Example 45, O-Diphenylmethylfumagillol], 8/13.

In the case of `CO[C@@H]1[C@H](OC(=O)NCCCl)CC[C@]2(CO2)[C@H]1[C@@]1(C)O[C@@H]1CC=C(C)C` [Example 34, O-(2-Chloroethylcarbamoyl)fumagillol], the Inhibition rate was 4/4.

In the case of `CO[C@@H]1[C@H](OC(=O)NC(=O)CSc2ccccn2)CC[C@]2(CO2)[C@H]1[C@@]1(C)O[C@@H]1CC=C(C)C` [Example 63, O-[(2-Pyridyl)thioacetylcarbamoyl]fumagillol], the Inhibition rate is listed as 6/6. Take `CO[C@@H]1[C@H](OC(=O)NC(=O)CCl)CC[C@]2(CO2)[C@H]1[C@@]1(C)O[C@@H]1CCC(C)C` [Example 51, O-Chloroacetylcarbamoyldihydrofumagillol]: the Inhibition rate is listed as 7/14. On the same count and under the same terms, then `CO[C@@H]1[C@H](OCc2ccc(Br)cc2)CC[C@]2(CO2)[C@H]1[C@@]1(C)O[C@@H]1CC=C(C)C` [Example 18, O-(p-Bromobenzyl)fumagillol], with 7/7. The same measure, in the same setting: then `CCN(CC)CC(=O)NC(=O)O[C@@H]1CC[C@]2(CO2)[C@@H]([C@@]2(C)O[C@@H]2CC=C(C)C)[C@@H]1OC` [Example 44, O-Diethylaminoacetylcarbamoylfumagillol], with 7/7; and `CO[C@@H]1[C@H](OC(=O)NC(=O)C(Cl)Cl)CC[C@]2(CO2)[C@H]1[C@@]1(C)O[C@@H]1CC=C(C)C` [Example 30, O-Dichloroacetylcarbamoylfumagillol], with 4/8; and `CO[C@@H]1[C@H](OC(=O)n2ccnc2)CC[C@]2(CO2)[C@H]1[C@@]1(C)O[C@@H]1CC=C(C)C` [Example 27, O-(1-Imidazolylcarbonyl)fumagillol], with 3/7. Same read-out and setting: in the case of `CCOC(=O)NC(=O)OC1CCC2(CO2)C(C2(C)OC2CC=C(C)C)C1OC` (centres unmarked) [Example 70, O-[N-(Ethoxycarbonyl)carbamoyl]fumagillol] it was 5/5; in that of `CO[C@@H]1[C@H](OC(=O)NC(=O)CSc2nnnn2CCN(C)C)CC[C@]2(CO2)[C@H]1[C@@]1(C)O[C@@H]1CC=C(C)C` [Example 52, O-[[1-(2-Dimethylaminoethyl)tetrazol]-5-yl-thioacetylcarbamoyl]fumagillol], 6/8. Consider `CO[C@@H]1[C@H](OC)CC[C@]2(CO2)[C@H]1[C@@]1(C)O[C@@H]1CC=C(C)C` [Example 14, O-Methylfumagillol], for which the Inhibition rate is listed as 4/8. Consider `CO[C@@H]1[C@H](OC(=O)NC(=O)CSc2cccc3ccccc23)CC[C@]2(CO2)[C@H]1[C@@]1(C)O[C@@H]1CC=C(C)C` [Example 54, O-(1-Naphthalenethioacetylcarbamoyl)fumagillol], for which the Inhibition rate is 5/5.

For the molecule `CO[C@@H]1[C@H](OC(=O)NC(=O)CSC(C)=O)CC[C@]2(CO2)[C@H]1[C@@]1(C)O[C@@H]1CC=C(C)C` [Example 41, O-Acetylthioacetylcarbamoylfumagillol], the Inhibition rate is 2/4. On the same count and under the same terms, in the case of `COC1C(OC(=O)NC(=O)CSc2cc[n+](C)cc2)CCC2(CO2)C1C1(C)OC1CC=C(C)C` (centres unmarked) [Example 69, O-[(N-Methylpyridin-4-ylium)thioacetylcarbamoyl]fumagillol iodide] it was 6/6. Same read-out and setting: then `CO[C@@H]1[C@H](OC(=O)NC(=O)C(Cl)(Cl)Cl)CC[C@]2(CO2)[C@H]1[C@@]1(C)O[C@@H]1CC=C(C)C` [Example 31, O-Trichloroacetylcarbamoylfumagillol], with 5/6; and `CO[C@@H]1[C@H](OC(=O)NN)CC[C@]2(CO2)[C@H]1[C@@]1(C)O[C@@H]1CC=C(C)C` [Example 26, O-Carbazoylfumagillol], with 6/6; and `CO[C@@H]1[C@H](OS(=O)(=O)c2ccc(C)cc2)CC[C@]2(CO2)[C@H]1[C@@]1(C)O[C@@H]1CC=C(C)C` [Example 20, O-(p-Toluenesulfonyl)fumagillol], with 3/4.

A further experiment deals with Human umbilical vein endothelial cells (HUVE). The experiment is described as follows: Inhibition of human endothelial cell growth (MTT). The class given is cell-based. To be noted: Homo sapiens, Endothelial cell, 120 h, rbFGF 2 ng/ml, 5 day culture, read-out: (IC₅₀). Here is the method:
Human umbilical vein endothelial cells (HUVE) were isolated by perfusion of an umbilical vein with a trypsin-containing medium. HUVE were cultured in GIT medium (Diago Eiyou Kagaku, Co., Japan) supplemented with 2.5% fetal bovine serum and 2.0 ng/ml of recombinant human basic fibroblast growth factor (rbFGF, Biotechnology Research Laboratories, Takeda, Osaka, Japan) at 37°C under 5% CO₂ and 7% O₂. HUVE were plated on 96-well microtiter plates (Nunc, 1-67008) at the cell density of 2 x 10³/100 »l of medium. The following day, 100 »l of medium containing rbFGF (2 ng/ml at the final concentration) and each compound (I) (shown by Example Numbers) at various concentrations were added to each well. […] After 5 day culture, medium was removed, 100 »l of 1 mg/ml of MTT (3-(4,5-dimethyl-2-thiazolyl)- 2,5-diphenyl-2H-tetrazolium bromide) solution was added to wells, and microtiters were kept at 37°C for 4 hours. Then, 100 »l of 10% sodium dodecyl sulfate (SDS) solution was added to wells, microtiters were kept at 37° for 5-6 hours. To determine the effects on cell number, the optical density ([…]) of each well was measured using an optical densitometer. […]
Turning to `CO[C@@H]1[C@H](OC(=O)NC(=O)CCl)CC[C@]2(CO2)[C@H]1[C@@]1(C)O[C@@H]1CCC(C)C` [Example 51, O-Chloroacetylcarbamoyldihydrofumagillol], the IC50 was determined as 0.14 ng/mL (≈ 0.347 nM).

The same experiment, now with this note: rbFGF 2 ng/ml, 5 day culture.
As to “O-Chloroacetylcarbamoyl-6'b-hydroxyfumagillol [Example 76]”, the “(IC₅₀)” value came to 0.12 ng/mL.

The next experiment concerns mouse reticulum cell sarcoma (M 5076). Nature of the experiment: Suppression of tumor formation in vivo (M 5076). Also on record: species or system C57BL/6N mice. The following applies: 30 mg/day subcutaneously, 10 injections over 12 days; tumor volume one day after the final injection. The text has this:
The tumor used in this assay was mouse reticulum cell sarcoma (M 5076), maintained by intraperitoneal transplantation into male C57BL/6N mice. The tumor cells in ascites were collected by centrifugation, and suspended in saline. The cell suspension (2 x 10⁶ cells/100 »l/mouse) was inoculated into right flanks of mice. Tumor-bearing mice were subcutaneously treated with the compound (I) (shown by Example Numbers) suspended in 5% arabic gum solution containing 1% of ethanol, for 12 days beginning one day after tumor inoculation (10 injections). The tumor growth was determined by measuring tumor size in two directions with calipers at intervals of a few days. The tumor volumes were calculated by the following formula. Tumor volume (mm³) = length x (width)² […]. [formula]
Regarding `CO[C@@H]1[C@H](OC(=O)NC(=O)CCl)CC[C@]2(CO2)[C@H]1[C@@]1(C)O[C@@H]1CCC(C)C` [Example 51, O-Chloroacetylcarbamoyldihydrofumagillol], the “T/C (%)” value is given as 22%. On the same count and under the same terms, in the case of “O-Chloroacetylcarbamoyl-6'b-hydroxyfumagillol [Example 76]” it was 29%.
